Experimental data: patent US11992495B2 (THE REGENTS OF THE UNIVERSITY OF CALIFORNIA, priority 2017, dated 2024)

System: lymph node mononuclear cells (T cell proliferation in response to HEL)
Assay: T cell recall responses to HEL, 3H-thymidine uptake (proliferation)
Type: cell-based, Mice
Details: alprazolam (Xanax) alone, any of the dosages tested
Description: Mice were injected with hen egg lysozyme (HEL, a prototypic foreign antigen) in 50% complete Freund's adjuvant (CFA) in their hind food-pad. […] During the last 16 h of a 96 h incubation period, […] ^3H thymidine was added into each well.

Structure (SMILES): Cc1nnc2n1-c1ccc(Cl)cc1C(c1ccccc1)=NC2 [alprazolam]
- effect on T cell proliferation: did not have a significant effect
